ChEMBL document CHEMBL3045209, “Synthesis of a novel barbiturate from 1-chloro-2,4-dinitrobenzene as an anticonvulsant agent” (2008)
Active and inactive are the calls of the source. No cut-off for these calls is given here.

Tests used:
Rattus norvegicus [1] = test: Anticonvulsant activity against maximal electroshock-induced convulsion in Rattus norvegicus albino (rat) assessed as recovery from convulsion at 25 to 100 mg/kg administered 1 hr before test; format: functional, organism-based
Rattus norvegicus [2] = test: Anticonvulsant activity against maximal electroshock-induced convulsion in Rattus norvegicus albino (rat) assessed as stupor convulsion time at 100 mg/kg administered 1 hr before test; format: functional
Rattus norvegicus [3] = test: Anticonvulsant activity against maximal electroshock-induced convulsion in Rattus norvegicus albino (rat) assessed as clonus convulsion time at 100 mg/kg administered 1 hr before test; format: functional
Rattus norvegicus [4] = test: Anticonvulsant activity against maximal electroshock-induced convulsion in Rattus norvegicus albino (rat) assessed as tonic extensor convulsion time at 100 mg/kg administered 1 hr before test; format: functional
Rattus norvegicus [5] = test: Anticonvulsant activity against maximal electroshock-induced convulsion in Rattus norvegicus albino (rat) assessed as tonic flexor convulsion time at 100 mg/kg administered 1 hr before test; format: functional
Rattus norvegicus [6] = test: Anticonvulsant activity against maximal electroshock-induced convulsion inRattus norvegicus albino (rat) assessed as stupor convulsion time at 50 mg/kg administered 1 hr before test; format: functional
Rattus norvegicus [7] = test: Anticonvulsant activity against maximal electroshock-induced convulsion in Rattus norvegicus albino (rat) assessed as clonus convulsion time at 50 mg/kg administered 1 hr before test; format: functional
Rattus norvegicus [8] = test: Anticonvulsant activity against maximal electroshock-induced convulsion in Rattus norvegicus albino (rat) assessed as tonic extensor convulsion time at 50 mg/kg administered 1 hr before test; format: functional
Rattus norvegicus [9] = test: Anticonvulsant activity against maximal electroshock-induced convulsion in Rattus norvegicus albino (rat) assessed as tonic flexor convulsion time at 50 mg/kg administered 1 hr before test; format: functional
Rattus norvegicus [10] = test: Anticonvulsant activity against maximal electroshock-induced convulsion in Rattus norvegicus albino (rat) assessed as stupor convulsion time at 25 mg/kg administered 1 hr before test; format: functional
Rattus norvegicus [11] = test: Anticonvulsant activity against maximal electroshock-induced convulsion in Rattus norvegicus albino (rat) assessed as clonus convulsion time at 25 mg/kg administered 1 hr before test; format: functional
Rattus norvegicus [12] = test: Anticonvulsant activity against maximal electroshock-induced convulsion in Rattus norvegicus albino (rat) assessed as tonic extensor convulsion time at 25 mg/kg administered 1 hr before test; format: functional
Rattus norvegicus [13] = test: Anticonvulsant activity against maximal electroshock-induced convulsion in Rattus norvegicus albino (rat) assessed as tonic flexor convulsion time at 25 mg/kg administered 1 hr before test; format: functional
Rattus norvegicus [14] = test: Anticonvulsant activity against maximal electroshock-induced convulsion in Rattus norvegicus albino (rat) assessed as recovery from convulsion at 25 mg/kg administered 1 hr before test; format: functional, organism-based; parameters: dose 25 mg/kg

SMILES | Activity (Rattus norvegicus [1]) | Time (Rattus norvegicus [2]) [s] | Time (Rattus norvegicus [3]) [s] | Time (Rattus norvegicus [4]) [s] | Time (Rattus norvegicus [5]) [s] | Time (Rattus norvegicus [6]) [s] | Time (Rattus norvegicus [7]) [s] | Time (Rattus norvegicus [8]) [s] | Time (Rattus norvegicus [9]) [s] | Time (Rattus norvegicus [10]) [s] | Time (Rattus norvegicus [11]) [s] | Time (Rattus norvegicus [12]) [s] | Time (Rattus norvegicus [13]) [s] | Activity (Rattus norvegicus [14])
O=C1CC(=O)NC(=O)N1 [BARBITURIC ACID] | Active | 85.7 | 5.6 | 2 | 2.9 | 82.2 | 5.1 | 6.5 | 3.1 | 105.5 | 7.2 | 13.2 | 4.2 | –
O=C1NC(=O)C(c2ccccc2)(c2ccccc2)N1 [PHENYTOIN] | – | – | – | – | – | – | – | – | – | 62.1 | 4.6 | 0 | 2.66 | Active
